Here are results for six compounds from publication PMC9902548, “In silico and in vitro anti-inflammatory study of phenolic compounds isolated from Eucalyptus maculata resin” (Scientific Reports, 2023).

For one assay, the target named is T1, TNF-R2 (Homo sapiens, UniProt P20333).
T1 construct: purchased BPS Bioscience 79756
T1 sequence (P20333 23-257 limits assumed): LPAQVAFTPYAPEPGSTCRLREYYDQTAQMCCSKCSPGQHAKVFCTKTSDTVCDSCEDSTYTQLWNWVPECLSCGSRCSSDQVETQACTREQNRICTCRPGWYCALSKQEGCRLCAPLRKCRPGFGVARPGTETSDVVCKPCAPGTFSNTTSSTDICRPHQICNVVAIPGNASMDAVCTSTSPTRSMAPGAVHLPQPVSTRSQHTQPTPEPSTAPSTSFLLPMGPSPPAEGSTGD
Briefly: TNF-R2 binding activity, ELISA kit. The conditions noted are these: mean ± SD, average of three determinations.

Another assay concerns NF-KB. Briefly: NF-KB inhibition, ELISA kit. The format is biochemical. The conditions noted are these: for NF- KB IC50 ± SD: mean ± SD, average of three determinations. On the procedure:
(§1) The 50% inhibitory concentration (IC50) values were calculated from the concentration-inhibition response curve.
(§2) Cyclooxygenases (COX-1 and COX-2) were measured by an enzyme immunoassay (EIA) kit (Cayman Chemical, Ann Arbor, MI, USA) according to the manufacturer’s instructions. TNF-R2, NF-KB, and NO were measured by ELISA kit (#79756, BPS Bioscience, USA), (#CSB-EL015761HU, Cusabio, China).

The test system of a further assay is NO. The experiment in a line: NO inhibition, ELISA kit. In kind it is biochemical. The conditions noted are these: mean ± SD, average of three determinations. The procedure:
as §1, §2
(In general: In an ELISA, binding on a coated surface is turned into a signal by an enzyme label.)

The target in assay [1] is T2, COX-2 (Homo sapiens, UniProt P35354).
T2 sequence (P35354 18-604): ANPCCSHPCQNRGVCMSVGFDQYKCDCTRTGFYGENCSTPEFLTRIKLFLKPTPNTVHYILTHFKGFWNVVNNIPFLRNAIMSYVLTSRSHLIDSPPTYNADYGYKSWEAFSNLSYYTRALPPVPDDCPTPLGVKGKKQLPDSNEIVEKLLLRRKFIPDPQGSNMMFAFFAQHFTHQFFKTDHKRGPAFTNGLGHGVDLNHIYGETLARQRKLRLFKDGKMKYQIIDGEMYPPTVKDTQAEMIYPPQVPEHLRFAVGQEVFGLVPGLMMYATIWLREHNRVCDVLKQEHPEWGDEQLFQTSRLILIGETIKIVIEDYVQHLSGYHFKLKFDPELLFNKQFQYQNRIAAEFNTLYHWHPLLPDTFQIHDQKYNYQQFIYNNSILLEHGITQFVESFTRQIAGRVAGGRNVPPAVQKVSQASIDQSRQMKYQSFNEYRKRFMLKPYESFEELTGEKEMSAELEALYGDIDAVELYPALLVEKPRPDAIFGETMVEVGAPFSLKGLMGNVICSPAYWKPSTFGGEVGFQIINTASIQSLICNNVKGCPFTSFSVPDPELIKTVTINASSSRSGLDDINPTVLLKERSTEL
The experiment in a line: COX-2 inhibition, enzyme immunoassay (EIA) kit.
Description: All enzyme inhibition activities were performed in triplicate and were examined using the sample t-test using the SPSS 26.0 program at (p < 0.05) (Table 1).

For assay [2], the target named is T2, COX-2. Set-up: purchased Cayman Chemical; method as in ref 15 (Zhang et.al 2006). The note with it: ref 15 (Zhang et.al 2006); cited from earlier work.
The next assay concerns the target COX-1 (Ovis aries, UniProt P05979). Set-up: method as in ref 15 (Zhang et al.). The conditions noted are these: ref 15 (Zhang et al.); cited from earlier work.

COX-1, sequence (P05979 25-600): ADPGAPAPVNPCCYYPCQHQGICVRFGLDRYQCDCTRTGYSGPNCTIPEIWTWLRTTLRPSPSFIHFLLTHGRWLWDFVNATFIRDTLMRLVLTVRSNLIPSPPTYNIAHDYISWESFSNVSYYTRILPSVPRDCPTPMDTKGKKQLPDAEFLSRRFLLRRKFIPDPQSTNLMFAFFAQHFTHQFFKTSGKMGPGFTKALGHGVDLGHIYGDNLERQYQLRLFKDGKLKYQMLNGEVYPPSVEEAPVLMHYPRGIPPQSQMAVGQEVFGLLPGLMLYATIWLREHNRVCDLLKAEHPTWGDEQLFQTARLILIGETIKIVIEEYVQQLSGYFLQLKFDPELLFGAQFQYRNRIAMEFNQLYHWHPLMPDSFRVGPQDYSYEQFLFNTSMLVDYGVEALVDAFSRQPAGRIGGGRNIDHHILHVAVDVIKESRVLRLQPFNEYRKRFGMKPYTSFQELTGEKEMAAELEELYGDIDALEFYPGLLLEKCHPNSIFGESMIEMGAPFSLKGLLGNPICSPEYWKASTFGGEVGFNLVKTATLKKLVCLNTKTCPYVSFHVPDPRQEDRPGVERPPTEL

As usually defined, the IC50 is the midpoint of a concentration-inhibition curve. Low readings indicate inhibition by little substance, high ones a need for much substance. As to `O=C(O)/C=C/c1ccccc1` [Compound C2, (E)-cinnamic acid], the IC50 is 51.5 nM on TNF-R2 and 34600 nM against COX-2 [1]. Further, the “Suppression of NF-KB (in words)” value in the assay on NF-KB is listed as “significantly moderate suppression”. Further, in the assay on NF-KB, the “NF- KB IC50 ± SD” value was 0.00877 ± 7e-05 ng/mL. Besides, in the assay with NO, the “NO IC50 ± SD” value is 66.00 ± 0.69 µg/mL.

`COc1cc(O)c2c(c1)O[C@H](c1ccc(O)cc1)CC2=O` [Compound C1, (2S)-5,4'-dihydroxy-7-methoxyflavanone]: the IC50 on TNF-R2 was 31 nM. In the assay with NF-KB, the “Suppression of NF-KB (in words)” value was “significantly moderate suppression” and the “NF- KB IC50 ± SD” value amounted to 0.01007 ± 9e-05 ng/mL. For the same compound, the “Inhibitory activity against COX-2 (in words)” value on COX-2 [2] was “no inhibitory activity”. For the same compound, the “NO IC50 ± SD” value in the assay on NO is recorded as 82.00 ± 1.06 µg/mL. On COX-2 [1], the “COX-2 inhibitory activity (in words)” value was “moderate inhibitory activity” and the IC50 was 11300 nM. Further, at COX-1, the “Inhibitory effects on COX-1 (in words)” value was “moderate inhibitory effects”.

As for `O=[N+]([O-])c1cccc2cn[nH]c12` [7-nitroindazole, 7-nitroindazole, reference compound], the “NO IC50 ± SD” value in the assay on NO is on record as 49.20 ± 0.80 µg/mL.

Take `O=C(C=Cc1ccccc1)OCC1OC(OC(=O)C=Cc2ccccc2)C(O)C(O)C1O` [Compound C5, 1,6-dicinnamoyl-O-α-D-glucopyranoside]: the IC50 is 11.7 nM at TNF-R2 and 2630 nM against COX-2 [1]. The “NF- KB IC50 ± SD” value in the assay on NF-KB is 0.00607 ± 7e-05 ng/mL. Further, the “NO IC50 ± SD” value in the assay with NO is reported as 38.00 ± 0.04 µg/mL.

Consider `COc1cc(O)c2c(c1)O[C@H](c1ccc(O)cc1)[C@@H](O)C2=O` [Compound C4, 7-O-methyl aromadendrin], for which the IC50 at TNF-R2 was 27.6 nM. Further, in the assay on NF-KB, the “Suppression of NF-KB (in words)” value was “significantly moderate suppression” and the “NF- KB IC50 ± SD” value was found to be 0.00933 ± 3e-05 ng/mL. In addition, the “Inhibitory activity against COX-2 (in words)” value at COX-2 [2] is “no inhibitory activity”. Also, the “NO IC50 ± SD” value with NO is 76.40 ± 1.74 µg/mL. For the same compound, on COX-2 [1], the “COX-2 inhibitory activity (in words)” value is listed as “moderate inhibitory activity” and it took 8440 nM to reach half-maximal inhibition (IC50). Also, the “Inhibitory effects on COX-1 (in words)” value on COX-1 is “moderate inhibitory effects”.

For the compound `COc1cc(/C=C/C(=O)CC(=O)/C=C/c2ccc(O)c(OC)c2)ccc1O` [Curcumin, reference compound], the “NF- KB IC50 ± SD” value in the assay on NF-KB amounted to 0.0078 ± 3e-05 ng/mL.
